# In patent US4789670A, “Method and compositions for suppression of atherogenesis utilizing cholesterol hydroperoxides” (priority 1987, dated 1988):
# Key:
# [1] = molecular target: Bovine brain calmodulin (Bos taurus, UniProt P62157); assay: Calmodulin assayed by activation of calmodulin-dependent cyclic nucleotide phosphodiesterase; assay type: biochemical; conditions: 122 μM
# Text: Bovine brain calmodulin was purified to homogeneity according to the method described by Sharma and Wang (1979), cited above, with the inclusion of phenyl-Sepharose affinity chromatography as described by Dedman and Kaetzel (1983) Methods Enzymol., 102:1-8. Calmodulin-deficient, calmodulin-dependent cyclic nucleotide phosphodiesterase from bovine brain was partially purified by the method described by Sharma et al. (1983) Methods Enzymol., 102:210-219, with the omission of the calmodulin-Sepharose affinity chromatography. Calmodulin was assayed by the activation of the bovine brain calmodulin-dependent cyclic, nucleotide phosphodiesterase as described by Leung et al. (1982) J. Biol. Chem., 259:2742-2747. Briefly, the phosphodiesterase reaction was coupled to the 5,'-nucleotidase reaction. The amount of phosphate released was measured by the malachite green method of Carter and Karl (1982) J. Biochem. Biophys. Methods, 7:7-13. One unit of calmodulin is defined as that amount giving 50% of the maximal activation of the phosphodiesterase.
# [2] = test system: rabbits fed an atherogenic diet; conditions: cited from earlier work
# [3] = Rabbit feeding experiments: blood plasma cholesterol and cholesterol esters; assay type: in vivo; conditions: +/- S.D.
# Description: (§1) For the first feeding experiment, eighteen young adult New Zealand white rabbits (2.7+/-0,3 kg) were divided into […]. The first group (3 animals) was killed immediately and tissue samples obtained for comparison with the experimental animals. The controls (3 rabbits) were fed 160 g/day Purina Pelleted Rabbit Chow (Ralston Purina Co., St. Louis, MO.); the other three groups (4 rabbits each) received the same diet to which was added 1.6 g recrystallized cholesterol, or 50 mg of the cholesterol hydroperoxide-enriched material, or both 1.6 g recrystallized cholesterol and 50 mg of cholesterol hydroperoxides. The sterols were added to the pelleted diet in ethyl ether and the ether was allowed to evaporate under a stream of nitrogen. The animals were fed this diet for 61 days, during which time one animal on the cholesterol diet died of unknown causes. The weight gained by the animals during the experiment, as percent of initial weight, was: controls, 38%; cholesterol, 33%; hydroperoxides, 34%; and cholesterol plus hydroperoxides, 18%. At the end of the feeding period the animals were killed and blood and tissue samples obtained for further investigation.
# A second feeding experiment was conducted in the same way as the first with the following changes. Twenty-six rabbits (2.8 +/-0.05 kg) were obtained; two were killed before the feeding experiment began and tissue samples obtained as before. The remaining animals were divided into 6 groups of 4. Four groups received the same diets as in the first experiment. The other two groups received 160/g day Purina Pelleted Rabbit Chow to which was added 50 mg/day of the material produced by reduction of the hydroperoxide-enriched material with NaI; or 1.6 g/day recrystallized cholesterol plus 50 mg/day of the reduced material. The animals received all six diets for 56 days, during which time one control animal and one receiving the hydroperoxide preparation died during removal of blood samples. The weight gain, as percent of initial weight, was: controls, 45%; cholesterol, 31%; hydroperoxides, 29%; cholesterol plus hydroperoxides, 31%; reduced hydroperoxides 35%, and cholesterol plus reduced hydroperoxides, 30%.
# (§2) The aortas were sectioned longitudinally and stained with Sudan IV (Holman et al., 1958Lat. Invest., 7:42-47). Serum lipoproteins were separated as described by Havel et al. (1955) J. Clin. Invest., 34:1345-1353. Lipids were extracted by the method of Bligh and Dyer (1959) Can. J. Biochem. and Physiol., 37:911-917 and free and esterified cholesterol concentrations in plasma, lipoproteins, and tissue were determined by the method of Sale (1984) Anal. Biochem., 142:347-350.
# [4] = test system: New Zealand white rabbits; assay: Rabbit feeding experiments: aortas stained with Sudan IV for atherosclerotic lesions; assay type: in vivo
# Description: as §1
# A second feeding experiment was conducted in the same way as the first with the following changes. Twenty-six rabbits (2.8 +/-0.05 kg) were obtained; two were killed before the feeding experiment began and tissue samples obtained as before. The remaining animals were divided into 6 groups of 4. Four groups received the same diets as in the first experiment. The other two groups received 160/g day Purina Pelleted Rabbit Chow to which was added 50 mg/day of the material produced by reduction of the hydroperoxide-enriched material with NaI; or 1.6 g/day recrystallized cholesterol plus 50 mg/day of the reduced material. […]
# The aortas were sectioned longitudinally and stained with Sudan IV (Holman et al., 1958Lat. Invest., 7:42-47). […] J. Biochem. and Physiol., 37:911-917 and free and esterified cholesterol concentrations in plasma, lipoproteins, and tissue were determined by the method of Sale (1984) Anal. Biochem., 142:347-350.
# [5] = Rabbit feeding experiment: cholesterol and cholesterol esters in liver and heart; assay type: in vivo; conditions: first feeding experiment, +/- S.D.
# Description: as §1, §2
compound,measurement,setting,value
CC(C)CCC[C@@H](C)[C@H]1CC[C@H]2[C@@H]3CCC4=CC(=O)CC[C@]4(C)[C@H]3CC[C@]12C [4-cholesten-3-one],effect in the phosphodiesterase assay,[1],without effect
CC(C)CCC[C@@H](C)[C@H]1CC[C@H]2[C@@H]3C(=O)C=C4C[C@@H](O)CC[C@]4(C)[C@H]3CC[C@]12C [5-cholesten-3β-ol-7-one],effect in the phosphodiesterase assay,[1],without effect
"CC(C)CCC[C@@H](C)[C@H]1CC[C@H]2[C@@H]3C[C@@H]4O[C@@]45C[C@@H](O)CC[C@]5(C)[C@H]3CC[C@]12C [Cholesterol-5α,6α-epoxide, cholesterol-5α,6α-epoxide]",effect in the phosphodiesterase assay,[1],without effect
CN(C)CCCN1c2ccccc2Sc2ccc(Cl)cc21 [chlorpromazine],development of atherosclerotic lesions,[2],reduced the development of such lesions
same,effect on blood cholesterol,[2],without lowering of blood cholesterol
CC(C)CCC[C@@H](C)[C@H]1CC[C@H]2[C@@H]3CC=C4C[C@@H](O)CC[C@]4(C)[C@H]3CC[C@]12C [cholesterol],Final blood plasma Cholesterol,[3]; first feeding experiment,446 ± 163 mg/dL
same,Final blood plasma Cholesterol Esters,[3]; first feeding experiment,1507 ± 361 mg/dL
same,Final blood plasma Cholesterol,[3]; second feeding experiment,828 ± 459 mg/dL
same,Final blood plasma Cholesterol Esters,[3]; second feeding experiment,1520 ± 820 mg/dL
same,atherosclerotic lesions in aorta (Sudan IV),"[4]; first feeding experiment, 61 days, added to chow: 1.6 g/day cholesterol and/or 50 mg/day hydroperoxide material",heavily infiltrated with fatty material
same,atherosclerotic lesions in aorta (Sudan IV),"[4]; first feeding experiment, 61 days, added to chow: 1.6 g/day cholesterol and/or 50 mg/day hydroperoxide material, listed as Cholesterol",extensive atheroma formation
same,atherosclerotic lesions in aorta (Sudan IV),"[4]; second feeding experiment, 56 days, added to chow: 1.6 g/day cholesterol and/or 50 mg/day test material",less than in the first experiment
same,"cholesterol and esters, HEART",[5],158 +/- 74 mg/100 g wet tissue
same,"cholesterol and esters, LIVER",[5],4960 +/- 1416 mg/100 g wet tissue
same,"cholesterol, HEART",[5],160 +/- 24 mg/100 g wet tissue
same,"cholesterol, LIVER",[5],1217 +/- 615 mg/100 g wet tissue
